Patent US8680159B2, “Bradykinin 1 receptor modulating compounds” (Gruenenthal GmbH, priority 2010, dated 2014)

target: T1, human B1R receptor (CHO K1 cells stably transfected with the human B1R gene) (Homo sapiens, UniProt P46663); assay: Functional study on the bradykinin receptor 1 (B1R), Ca2+ fluorescence (Fluo-4) FLIPR/Novostar assay, hB1R cells; type: cell-based; details: CHO-K1, read-out: % Inhibition (h-B1R) at 10 μM
T1 construct: expressed in transfected cells; host or cells: CHO K1 cells (Chinese hamster ovary), stably transfected
T1 sequence (P46663 1-353): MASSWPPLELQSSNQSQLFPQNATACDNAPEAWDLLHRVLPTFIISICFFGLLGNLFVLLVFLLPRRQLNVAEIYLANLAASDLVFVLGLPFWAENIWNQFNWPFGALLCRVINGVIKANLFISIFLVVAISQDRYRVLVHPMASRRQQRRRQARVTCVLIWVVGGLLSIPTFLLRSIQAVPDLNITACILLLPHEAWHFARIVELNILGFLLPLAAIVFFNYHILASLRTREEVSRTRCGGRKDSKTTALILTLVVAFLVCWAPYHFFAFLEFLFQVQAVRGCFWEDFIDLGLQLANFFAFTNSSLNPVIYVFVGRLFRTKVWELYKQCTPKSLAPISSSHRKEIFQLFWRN
Method in brief: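 Ca2+ influx (Fluo-4, peak fluorescence, λex 488/λem 540 nm) was measured in CHO K1 lines expressing rat or human B1R. After a 10 μM test-compound pre-addition scoring % activation, cells received EC80 agonist: Des-Arg9-bradykinin for rat, Lys-Des-Arg9-bradykinin for human. Antagonism was expressed as % of maximum inhibition, with IC50 from varied concentrations.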

SMILES	inhibition at 10 µM
Cc1cc(N2CCC(N(C)C(=O)c3ccc4c(c3)C(NC(=O)C3CCCCC3)CC4)CC2)cc(C)n1 (centres unmarked) [CC_H-123, 3-(Cyclohexanecarbonylamino)-N-[1-(2,6-dimethyl-pyridin-4-yl)-piperidin-4-yl]-N-methyl-2,3-dihydro-1H-indene-5-carboxylic acid amide]	100%
CN(C(=O)c1ccc2c(c1)C(NC(=O)c1cncnc1)CCO2)C1CCN(c2ccncc2)CC1 (centres unmarked) [CC_H-124, N-[6-[Methyl-(1-pyridin-4-yl-piperidin-4-yl)-carbamoyl]-3,4-dihydro-2H-chromen-4-yl]-pyrimidine-5-carboxylic acid amide]	68%
CN(C(=O)c1ccc2c(c1)C(NS(=O)(=O)Cc1ccccc1C(F)(F)F)CCC2)C1CCN(c2ccncc2)CC1 (centres unmarked) [CC_H-125, N-Methyl-N-(1-pyridin-4-yl-piperidin-4-yl)-8-[[[2-(trifluoromethyl)-phenyl]-methylsulfonyl]amino]-5,6,7,8-tetrahydro-naphthalene-2-carboxylic acid amide]	100%
CN(C(=O)NC1CCc2cc(C(=O)N(C)C3CCN(c4ccncc4)CC3)ccc21)c1ccccc1Cl (centres unmarked) [CC_H-126, 1-[[(2-Chlorophenyl)-methyl-carbamoyl]amino]-N-methyl-N-(1-pyridin-4-yl-piperidin-4-yl)-2,3-dihydro-1H-indene-5-carboxylic acid amide]	100%
CN(C(=O)c1ccc2c(c1)CCC2NC(=O)c1c(Cl)cccc1C(F)(F)F)C1CCN(c2ccncc2)CC1 (centres unmarked) [CC_H-127, 1-[[2-Chloro-6-(trifluoromethyl)-benzoyl]amino]-N-methyl-N-(1-pyridin-4-yl-piperidin-4-yl)-2,3-dihydro-1H-indene-5-carboxylic acid amide]	95%
O=C(NCCC1CCN(c2ccncc2)CC1)c1ccc2c(c1)C(NS(=O)(=O)Cc1ccccc1C(F)(F)F)CC2 (centres unmarked) [CC_H-128, N-[2-(1-Pyridin-4-yl-piperidin-4-yl)-ethyl]-3-[[[2-(trifluoromethyl)-phenyl]-methylsulfonyl]amino]-2,3-dihydro-1H-indene-5-carboxylic acid amide]	99%
Cc1cc(N2CCC(N(C)C(=O)c3ccc4c(c3)C(N(C)S(=O)(=O)Cc3ccccc3C(F)(F)F)CC4)CC2)cc(C)n1 (centres unmarked) [CC_H-129, N-[1-(2,6-Dimethyl-pyridin-4-yl)-piperidin-4-yl]-N-methyl-3-[methyl-[[2-(trifluoromethyl)-phenyl]-methylsulfonyl]-amino]-2,3-dihydro-1H-indene-5-carboxylic acid amide]	100%
CN(C(=O)c1ccc2c(c1)C(NC(=O)c1cncnc1)CC2)C1CCN(c2ccc3cnccc3c2)CC1 (centres unmarked) [CC_H-130, N-[6-[(1-Isoquinolin-6-yl-piperidin-4-yl)-methyl-carbamoyl]-2,3-dihydro-1H-inden-1-yl]-pyrimidine-5-carboxylic acid amide]	81%
Cc1cc(N2CCC(N(C)C(=O)c3ccc4c(c3)C(NC(=O)C(C)(C)c3ccccc3Cl)CC4)CC2)cc(C)n1 (centres unmarked) [CC_H-131, 3-[[2-(2-Chlorophenyl)-2-methyl-propanoyl]amino]-N-[1-(2,6-dimethyl-pyridin-4-yl)-piperidin-4-yl]-N-methyl-2,3-dihydro-1H-indene-5-carboxylic acid amide]	99%
CC(C)CC(=O)NC1CCc2ccc(C(=O)NCCC3CCN(c4ccncc4)CC3)cc21 (centres unmarked) [CC_H-132, 3-(3-Methyl-butanoylamino)-N-[2-(1-pyridin-4-yl-piperidin-4-yl)-ethyl]-2,3-dihydro-1H-indene-5-carboxylic acid amide]	99%
Cc1cccc(C)c1C(=O)NC1CCc2ccc(C(=O)N(C)C3CCN(c4ccc5cnccc5c4)CC3)cc21 (centres unmarked) [CC_H-133, 3-[(2,6-Dimethyl-benzoyl)amino]-N-(1-isoquinolin-6-yl-piperidin-4-yl)-N-methyl-2,3-dihydro-1H-indene-5-carboxylic acid amide]	90%
Cc1cc(N2CCC(N(C)C(=O)c3ccc4c(c3)C(N(C)S(=O)(=O)c3c(Cl)cccc3C(F)(F)F)CC4)CC2)cc(C)n1 (centres unmarked) [CC_H-134, 3-[[[2-Chloro-6-(trifluoromethyl)-phenyl]sulfonyl]-methyl-amino]-N-[1-(2,6-dimethyl-pyridin-4-yl)-piperidin-4-yl]-N-methyl-2,3-dihydro-1H-indene-5-carboxylic acid amide]	100%
CC(C)CC(=O)NC1CCCc2ccc(C(=O)N(C)C3CCN(c4ccncc4)CC3)cc21 (centres unmarked) [CC_H-135, N-Methyl-8-(3-methyl-butanoylamino)-N-(1-pyridin-4-yl-piperidin-4-yl)-5,6,7,8-tetrahydro-naphthalene-2-carboxylic acid amide]	100%
O=C(NCCC1CCN(c2ccncc2)CC1)c1ccc2c(c1)C(NC(=O)c1c(Cl)cccc1C(F)(F)F)CC2 (centres unmarked) [CC_H-136, 3-[[2-Chloro-6-(trifluoromethyl)-benzoyl]amino]-N-[2-(1-pyridin-4-yl-piperidin-4-yl)-ethyl]-2,3-dihydro-1H-indene-5-carboxylic acid amide]	100%

Continued, values first:

inhibition at 10 µM	SMILES
96%	CN(C(=O)c1ccc2c(c1)C(NC(=O)c1c(Cl)cccc1C(F)(F)F)CC2)C1CCN(c2ccncc2)CC1 (centres unmarked) [CC_H-137, 3-[[2-Chloro-6-(trifluoromethyl)-benzoyl]amino]-N-methyl-N-(1-pyridin-4-yl-piperidin-4-yl)-2,3-dihydro-1H-indene-5-carboxylic acid amide]
98%	Cc1cccc(C)c1C(=O)NC1CCc2ccc(C(=O)N(C)C3CCN(c4ccncc4)CC3)cc21 (centres unmarked) [CC_H-138, 3-[(2,6-Dimethyl-benzoyl)amino]-N-methyl-N-(1-pyridin-4-yl-piperidin-4-yl)-2,3-dihydro-1H-indene-5-carboxylic acid amide]
98%	CN(C(=O)c1ccc2c(c1)C(NC(=O)C(C)(C)c1ccccc1Cl)CC2)C1CCN(c2ccncc2)CC1 (centres unmarked) [CC_H-139, 3-[[2-(2-Chlorophenyl)-2-methyl-propanoyl]amino]-N-methyl-N-(1-pyridin-4-yl-piperidin-4-yl)-2,3-dihydro-1H-indene-5-carboxylic acid amide]
100%	CN(C(=O)c1ccc2c(c1)C(NC(=O)C1CCCCC1)CC2)C1CCN(c2ccncc2)CC1 (centres unmarked) [CC_H-140, 3-(Cyclohexanecarbonylamino)-N-methyl-N-(1-pyridin-4-yl-piperidin-4-yl)-2,3-dihydro-1H-indene-5-carboxylic acid amide]
100%	CN(C(=O)c1ccc2c(c1)C(NS(=O)(=O)Cc1ccccc1C(F)(F)F)CC2)C1CCN(c2ccncc2)CC1 (centres unmarked) [CC_H-141, N-Methyl-N-(1-pyridin-4-yl-piperidin-4-yl)-3-[[[2-(trifluoromethyl)-phenyl]-methylsulfonyl]amino]-2,3-dihydro-1H-indene-5-carboxylic acid amide]
100%	Cc1cc(N2CCC(N(C)C(=O)c3ccc4c(c3)C(NC(=O)N(C)c3ccccc3Cl)CC4)CC2)cc(C)n1 (centres unmarked) [CC_H-142, 3-[[(2-Chlorophenyl)-methyl-carbamoyl]amino]-N-[1-(2,6-dimethyl-pyridin-4-yl)-piperidin-4-yl]-N-methyl-2,3-dihydro-1H-indene-5-carboxylic acid amide]
100%	CN(C(=O)c1ccc2c(c1)CCC2NS(=O)(=O)c1c(Cl)cccc1C(F)(F)F)C1CCN(c2ccncc2)CC1 (centres unmarked) [CC_H-143, 1-[[[2-Chloro-6-(trifluoromethyl)-phenyl]sulfonyl]amino]-N-methyl-N-(1-pyridin-4-yl-piperidin-4-yl)-2,3-dihydro-1H-indene-5-carboxylic acid amide]

same assay, conditions: CHO-K1, read-out: % inhibition (human B1R) at 10 μM

inhibition at 10 µM	SMILES
65%	Cc1cc(N2CCC(N(C)C(=O)c3ccc4c(c3)[C@H](N(C(=O)c3ccccc3C)C(C)C)CC4)CC2)nc(C)n1 [Example H-172, (3R)-N-[1-(2,6-Dimethyl-pyrimidin-4-yl)-piperidin-4-yl]-3-[isopropyl-(2-methyl-benzoyl)-amino]-N-methyl-2,3-dihydro-1H-indene-5-carboxylic acid amide]
100%	CCN(C(=O)c1cccnc1C(F)(F)F)[C@@H]1CCc2ccc(C(=O)N(C)C3CCN(c4cc(C)nc(C)n4)CC3)cc21 [Example H-174, N-[(1R)-6-[[1-(2,6-Dimethyl-pyrimidin-4-yl)-piperidin-4-yl]-methyl-carbamoyl]-2,3-dihydro-1H-inden-1-yl]-N-ethyl-2-(trifluoromethyl)-pyridine-3-carboxylic acid amide]
97%	Cc1cc(N2CCC(N(C)C(=O)c3ccc4c(c3)[C@H](N(C)C(=O)c3c(F)cccc3Cl)CC4)CC2)nc(C)n1 [Example H-175, (3R)-3-[(2-Chloro-6-fluoro-benzoyl)-methyl-amino]-N-[1-(2,6 dimethyl-pyrimidin-4-yl)-piperidin-4-yl]-N-methyl-2,3-dihydro-1H-indene-5-carboxylic acid amide]
97%	CCN(C(=O)c1c(F)cccc1Cl)[C@@H]1CCc2ccc(C(=O)N(C)C3CCN(c4cc(C)nc(C)n4)CC3)cc21 [Example H-176]
100%	CN(C(=O)c1ccc2c(c1)[C@H](N(C)C(=O)CCC1CCCC1)CC2)C1CCN(c2ccncc2F)CC1 [Example H-188, (3R)-3-(3-Cyclopentyl-propanoyl-methyl-amino)-N-[1-(3-fluoro-pyridin-4-yl)-piperidin-4-yl]-N-methyl-2,3-dihydro-1H-indene-5-carboxylic acid amide]
